Laboratory results published in ChEMBL document CHEMBL1649214, “Antimalarial activity of tigecycline, a novel glycylcycline antibiotic” (Antimicrob Agents Chemother, 2009).

Legend:
Plasmodium falciparum [1] = assay: Antimalarial activity against Plasmodium falciparum isolates assessed as parasite growth inhibition after 72 hrs by ELISA based histidine-rich protein 2 in vitro drug susceptibility assay; format: functional, organism-based
Plasmodium falciparum [2] = assay: Ratio of IC50 for Plasmodium falciparum isolates after 72 hrs to IC50 for Plasmodium falciparum isolates after 24 hrs by ELISA based histidine-rich protein 2 in vitro drug susceptibility assay; format: functional

Row | SMILES | IC50 (Plasmodium falciparum [1]) | IC90 (Plasmodium falciparum [1]) | IC99 (Plasmodium falciparum [1]) | Ratio IC50 (Plasmodium falciparum [2])
1 | C=C[C@H]1CN2CC[C@H]1C[C@H]2[C@H](O)c1ccnc2ccc(OC)cc12 [QUININE] | 106 nM | 441 nM | 0.673 µM | –
2 | CN(C)c1cc(NC(=O)CNC(C)(C)C)c(O)c2c1C[C@H]1C[C@H]3[C@H](N(C)C)C(O)=C(C(N)=O)C(=O)[C@@]3(O)C(O)=C1C2=O [TIGECYCLINE] | 699 nM | 5910 nM | 12.4 µM | 49
3 | OC(c1cc(C(F)(F)F)nc2c(C(F)(F)F)cccc12)C1CCCCN1 (configuration not stated) [MEFLOQUINE] | 14.4 nM | 64 nM | 0.106 µM | –
4 | CC[C@H]1OC(=O)[C@H](C)[C@@H](O[C@H]2C[C@@](C)(OC)[C@@H](O)[C@H](C)O2)[C@H](C)[C@@H](O[C@@H]2O[C@H](C)C[C@H](N(C)C)[C@H]2O)[C@](C)(O)C[C@@H](C)CN(C)[C@H](C)[C@@H](O)[C@]1(C)O [AZITHROMYCIN] | 4310 nM | 18400 nM | 26.7 µM | –
5 | C[C@H]1[C@@H](O)O[C@@H]2O[C@@]3(C)CC[C@H]4[C@H](C)CC[C@@H]1[C@@]24OO3 [ARTENIMOL] | 0.77 nM | 2.76 nM | 0.004 µM | –
6 | CCN(CC)CCCC(C)Nc1ccnc2cc(Cl)ccc12 (configuration not stated) [CHLOROQUINE] | – | 303 nM | 0.436 µM | –
7 | C[C@H]1c2cccc(O)c2C(=O)C2=C(O)[C@]3(O)C(=O)C(C(N)=O)=C(O)[C@@H](N(C)C)[C@@H]3[C@@H](O)[C@@H]21.O [DOXYCYCLINE] | 4280 nM | 19400 nM | 27.2 µM | 13
